Experimental data taken from ChEMBL document CHEMBL5678818, “Discovery of potent SOS1 inhibitors that block RAS activation via disruption of the RAS-SOS1 interaction” (Proc Natl Acad Sci U S A, 2019).

Key:
[1] = test system: Fibroblast growth factor receptor 3 (Homo sapiens), P22607 [G697C]; test: Inhibition of FGFR3 G697C mutant (unknown origin) assessed as residual activity at 100 nM by KINOMEscan analysis relative to control
[2] = target: Leucine-rich repeat serine/threonine-protein kinase 2 (Homo sapiens) (UniProt Q5S007); test: Inhibition of LRRK2 (unknown origin) assessed as residual activity at 100 nM by KINOMEscan analysis relative to control
[3] = target: Myosin light chain kinase, smooth muscle (Homo sapiens) (UniProt Q15746); test: Inhibition of MYLK (unknown origin) assessed as residual activity at 100 nM by KINOMEscan analysis relative to control
[4] = target: T1, Mitogen-activated protein kinase kinase kinase 19 (Homo sapiens) (UniProt Q56UN5); test: Inhibition of YSK4 (unknown origin) assessed as residual activity at 100 nM by KINOMEscan analysis relative to control
T1 sequence (whole entry): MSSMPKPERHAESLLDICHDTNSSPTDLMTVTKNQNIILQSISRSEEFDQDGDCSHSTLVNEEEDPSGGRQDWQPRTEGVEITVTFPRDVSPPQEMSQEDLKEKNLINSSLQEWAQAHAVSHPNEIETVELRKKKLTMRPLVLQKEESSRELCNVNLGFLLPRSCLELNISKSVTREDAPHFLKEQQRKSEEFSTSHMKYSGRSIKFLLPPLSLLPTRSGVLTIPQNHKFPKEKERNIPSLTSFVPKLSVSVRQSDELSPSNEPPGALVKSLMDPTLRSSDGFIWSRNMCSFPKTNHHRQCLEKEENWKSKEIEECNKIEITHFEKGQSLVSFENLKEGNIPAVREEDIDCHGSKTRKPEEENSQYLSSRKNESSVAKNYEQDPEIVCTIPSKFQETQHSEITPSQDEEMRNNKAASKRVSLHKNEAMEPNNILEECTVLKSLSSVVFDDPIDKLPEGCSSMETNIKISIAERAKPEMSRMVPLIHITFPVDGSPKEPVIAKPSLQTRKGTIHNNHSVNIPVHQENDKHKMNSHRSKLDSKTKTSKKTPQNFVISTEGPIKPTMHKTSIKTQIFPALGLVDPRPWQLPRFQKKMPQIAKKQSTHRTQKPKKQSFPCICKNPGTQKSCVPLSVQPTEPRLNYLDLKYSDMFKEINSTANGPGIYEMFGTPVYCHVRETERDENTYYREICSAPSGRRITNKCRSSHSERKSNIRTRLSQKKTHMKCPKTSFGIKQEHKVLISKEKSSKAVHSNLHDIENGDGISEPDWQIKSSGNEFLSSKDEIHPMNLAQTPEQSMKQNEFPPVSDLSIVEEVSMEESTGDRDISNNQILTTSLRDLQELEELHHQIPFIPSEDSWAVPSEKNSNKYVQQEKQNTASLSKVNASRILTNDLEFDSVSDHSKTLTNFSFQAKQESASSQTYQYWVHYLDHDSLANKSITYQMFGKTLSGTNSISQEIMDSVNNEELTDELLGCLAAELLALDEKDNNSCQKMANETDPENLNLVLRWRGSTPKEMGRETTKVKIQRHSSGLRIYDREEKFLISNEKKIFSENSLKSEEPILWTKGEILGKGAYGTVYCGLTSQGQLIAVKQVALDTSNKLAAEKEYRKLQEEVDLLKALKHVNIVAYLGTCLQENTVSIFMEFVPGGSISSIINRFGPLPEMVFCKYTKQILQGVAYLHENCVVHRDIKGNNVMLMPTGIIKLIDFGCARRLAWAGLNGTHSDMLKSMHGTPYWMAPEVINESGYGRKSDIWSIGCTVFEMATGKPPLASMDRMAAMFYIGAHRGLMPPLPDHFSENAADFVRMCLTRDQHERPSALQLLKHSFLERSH

[5] = test system: Mast/stem cell growth factor receptor Kit (Homo sapiens), P10721 [V559D,V654A]; test: Inhibition of KIT V559D/V654A mutant (unknown origin) assessed as residual activity at 100 nM by KINOMEscan analysis relative to control
[6] = target: Ephrin type-A receptor 7 (Homo sapiens) (UniProt Q15375); test: Inhibition of EPHA7 (unknown origin) assessed as residual activity at 100 nM by KINOMEscan analysis relative to control
[7] = target: Transient receptor potential cation channel subfamily M member 6 (Homo sapiens) (UniProt Q9BX84); test: Inhibition of TRPM6 (unknown origin) assessed as residual activity at 100 nM by KINOMEscan analysis relative to control
[8] = target: T2, Mitogen-activated protein kinase kinase kinase kinase 2 (Homo sapiens) (UniProt Q12851); test: Inhibition of MAP4K2 (unknown origin) assessed as residual activity at 100 nM by KINOMEscan analysis relative to control
T2 sequence (whole entry): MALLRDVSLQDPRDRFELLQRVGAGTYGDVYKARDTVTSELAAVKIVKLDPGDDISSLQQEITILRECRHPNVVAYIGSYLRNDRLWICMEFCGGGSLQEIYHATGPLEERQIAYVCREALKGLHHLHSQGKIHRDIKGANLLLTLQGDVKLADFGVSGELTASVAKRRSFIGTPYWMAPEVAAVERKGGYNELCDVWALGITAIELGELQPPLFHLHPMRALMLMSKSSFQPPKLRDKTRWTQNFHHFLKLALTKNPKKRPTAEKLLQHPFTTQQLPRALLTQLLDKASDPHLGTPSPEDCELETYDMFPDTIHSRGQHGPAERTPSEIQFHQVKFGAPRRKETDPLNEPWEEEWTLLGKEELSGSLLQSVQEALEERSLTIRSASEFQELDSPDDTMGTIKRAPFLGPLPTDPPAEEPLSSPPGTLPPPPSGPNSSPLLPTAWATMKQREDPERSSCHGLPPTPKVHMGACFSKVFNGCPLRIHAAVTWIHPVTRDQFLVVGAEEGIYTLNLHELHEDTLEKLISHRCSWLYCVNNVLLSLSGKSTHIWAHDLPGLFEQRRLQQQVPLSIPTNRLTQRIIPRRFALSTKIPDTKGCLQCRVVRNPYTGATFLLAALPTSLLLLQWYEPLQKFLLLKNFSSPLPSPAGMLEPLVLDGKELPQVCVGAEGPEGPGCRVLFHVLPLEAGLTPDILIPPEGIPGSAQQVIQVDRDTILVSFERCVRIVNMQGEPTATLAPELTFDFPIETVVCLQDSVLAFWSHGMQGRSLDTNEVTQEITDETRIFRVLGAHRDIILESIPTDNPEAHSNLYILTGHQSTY

[9] = test system: Mast/stem cell growth factor receptor Kit (Homo sapiens), P10721 [L576P]; test: Inhibition of KIT L576P mutant (unknown origin) assessed as residual activity at 100 nM by KINOMEscan analysis relative to control
[10] = test system: GTPase KRas (Homo sapiens), P01116 [G12C]; test: Stabilization of N-terminal GST-tagged recombinant human KRAS G12C mutant (1 to 169 residues) expressed in Escherichia coli assessed as change in melting temperature at 100 uM with heating from 25 to 85 degreeC by thermal shift assay

Structure (SMILES)	Activity [1]	Activity [2]	Activity [3]	Activity [4]	Activity [5]	Activity [6]	Activity [7]	Activity [8]	Activity [9]	ΔTm [10]
COc1cc2ncnc(N[C@H](C)c3cccc4ccccc34)c2cc1OC	66%	82%	69%	92%	100%	78%	84%	83%	85%	
CNCc1ccccc1-c1csc([C@@H](C)Nc2nc(C)nc3cc(OC)c(OC)cc23)c1 [BAY-293]										0.21 °C
